Experimental data taken from patent US8916523B2, “VIP fragments and methods of use” (Vectus Biosystems Limited, priority 2005, dated 2014).
Ends that are not written are not given here.

Tested on: Spontaneous Hypertensive Rats (SHR)
Assay: Effect of VIP fragment treatment on blood pressure (tail cuff plethysmography) in animal model of hypertension
Type: in vivo, rat
Conditions: SHR on 2.2% salt diet for 4 weeks, peptide infused at 5 pmol/kg/min for 4 weeks, FIGS. 6-9
From the text: To determine whether VIP and fragments were effective in controlling blood pressure, Spontaneous Hypertensive Rats (SHR) were acclimated to blood pressure measurement by tail cuff plethysmography and then they were placed on a 2.2% salt diet for 4 weeks.
The rats were randomized to Control (Hartman's Solution) vehicle infusion, VIP(1-28) ([…] (SEQ ID NO: 1), VIP(4-10) (Ala-Val-Phe-Thr-Asp-Asn-Tyr) (SEQ ID NO: 29), VIP(4-12) (Ala-Val-Phe-Thr-Asp-Asn-Tyr-Thr-Arg) (SEQ ID NO: 31), VIP(4-16) (Ala-Val-Phe-Thr-Asp-Asn-Tyr-Thr-Arg-Leu-Arg-Lys-Gln) (SEQ ID NO: 35), VIP(4-20) (Ala-Val-Phe-Thr-Asp-Asn-Tyr-Thr-Arg-Leu-Arg-Lys-Gln-Met-Ala-Val-Lys) (SEQ ID NO: 39), VIP(4-24) ([…] (SEQ ID NO: 43), VIP(4-28) ([…] (SEQ ID NO: 90), VIP(6-10) (Phe-Thr-Asp-Asn-Tyr) (SEQ ID NO: 66), VIP(6-12) (Phe-Thr-Asp-Asn-Tyr-Thr-Arg) (SEQ ID NO: 68), VIP(6-16) (Phe-Thr-Asp-Asn-Tyr-Thr-Arg-Leu-Arg-Lys-Gln) (SEQ ID NO: 72), VIP(6-20) (Phe-Thr-Asp-Asn-Tyr-Thr-Arg-Leu-Arg-Lys-Gln-Met-Ala-Val-Lys) (SEQ ID NO: 76), VIP(6-24) (Phe-Thr-Asp-Asn-Tyr-Thr-Arg-Leu-Arg-Lys-Gln-Met-Ala-Val-Lys-Lys-Tyr-Leu-Asn) (SEQ ID NO: 80), VIP(6-28) ([…] (SEQ ID NO: 84), VIP(16-20) (Gln-Met-Ala-Val-Lys) (SEQ ID NO: 20), VIP(16-24) (Gln-Met-Ala-Val-Lys-Lys-Tyr-Leu-Asn) (SEQ ID NO: 93), VIP(16-28) (Gln-Met-Ala-Val-Lys-Lys-Tyr-Leu-Asn-Ser-Ile-Leu-Asn) (SEQ ID NO: 88), VIP(1-12) (His-Ser-Asp-Ala-Val-Phe-Thr-Asp-Asn-Tyr-Thr-Arg) (SEQ ID NO: 91) and VIP(10-28) (Tyr-Thr-Arg-Leu-Arg-Lys-Gln-Met-Ala-Val-Lys-Lys-Tyr-Leu-Asn-Ser-Ile-Leu-Asn) (SEQ ID NO: 92), VIP(4-10) (Ala-Val-Phe-Thr-Asp-Asn-Tyr) (SEQ ID NO: 29).
Each peptide was infused at 5 pmol/kg/min
Blood pressure was measured by tail cuff plethysmography twice weekly for 4 weeks.

Substance | reduction in systolic blood pressure (SBP) relative to the control solution
His-Ser-Asp-Ala-Val-Phe-Thr-Asp-Asn-Tyr-Thr-Arg-Leu-Arg-Lys-Gln-Met-Ala-Val-Lys-Lys-Tyr-Leu-Asn-Ser-Ile-Leu-Asn (HSDAVFTDNYTRLRKQMAVKKYLNSILN; listed as Homo sapiens) [VIP, reference compound] | not seen to have any significant effect in reducing SBP
AVFTDNYTRLRKQMAVK [VIP(4-20)] | significant reductions in SBP
FTDNYTRLRKQMAVKKYLN [VIP(6-24)] | significant reductions in SBP
AVFTDNYTR [VIP(4-12)] | significant reductions in SBP
AVFTDNYTRLRKQMAVKKYLNSILN [VIP(4-28)] | significant reductions in SBP
AVFTDNYTRLRKQ [VIP(4-16)] | significant reductions in SBP
Phe-Thr-Asp-Asn-Tyr-Thr-Arg-Leu-Arg-Lys-Gln-Met-Ala-Val-Lys-Lys-Tyr-Leu-Asn-Ser-Ile-Leu-Asn (FTDNYTRLRKQMAVKKYLNSILN; listed as Homo sapiens) [VIP(6-28), VIP fragment described earlier in PCT/AU2005/000835, not included in the present invention, reference compound] | significant reductions in SBP
FTDNYTRLRKQMAVK [VIP(6-20)] | significant reductions in SBP
AVFTDNYTRLRKQMAVKKYLN [VIP(4-24)] | significant reductions in SBP

Same assay, conditions: SHR on high salt diet, 5 pmol/kg/min for 4 weeks, FIG. 6

Substance | relative efficacy in reducing SBP compared with VIP(4-12) and VIP(4-20)
AVFTDNYTRLRKQ [VIP(4-16)] | less efficacious

Tested on: WKY rats on a high salt diet
Assay: Effect of VIP fragment treatment on regression of existing myocardial fibrosis
Type: in vivo, rat
Conditions: 18 week old WKY rats after 4 weeks high salt diet and infusion 5 pmol/kg/min vs untreated 14 week old rats (zero time), preliminary results, FIG. 2
Procedure: To determine whether VIP (6-16) (SEQ ID NO: 72), VIP(6-20) (SEQ ID NO: 76) and VIP(6-24) (SEQ ID NO: 80) infusion caused regression of existing fibrosis as well as prevented progression of fibrosis two groups of studies were performed. The degree of myocardial fibrosis in untreated 14 week old WKY rats was compared with the degree of fibrosis in 18 week old WKY rats after 4 weeks treatment with a high salt diet or a high salt diet plus L-NAME (10 mg/kg/day) and either VIP (6-16) (SEQ ID NO: 72), VIP(6-20) (SEQ ID NO: 76) and VIP(6-24) (SEQ ID NO: 80) (5 pmol/kg/min) or vehicle control infusion (see FIG. 2)
The regression of fibrosis may be due to either reduction in collagen formation or enhancement of its degradation.

Substance | regression of myocardial fibrosis
FTDNYTRLRKQ [VIP(6-16)] | regression of myocardial fibrosis

Tested on: myocardial fibrosis
Assay: not given
Conditions: disclosed in PCT/AU2005/000835; cited from earlier work

Substance | effectiveness for preventing myocardial fibrosis
Phe-Thr-Asp-Asn-Tyr-Thr-Arg-Leu-Arg-Lys-Gln-Met-Ala-Val-Lys-Lys-Tyr-Leu-Asn-Ser-Ile-Leu-Asn (FTDNYTRLRKQMAVKKYLNSILN; listed as Homo sapiens) [VIP(6-28), VIP fragment described earlier in PCT/AU2005/000835, not included in the present invention, reference compound] | effective for preventing myocardial fibrosis
